In patent US20130287823A1, “PATCH” (priority 2010, published 2013):
Where a name gives a salt, the structure may show the parent alone. Read-outs that look alike come from different tables or passages of the source.

Columns and labels:
[1] = Storage stability of midodrine in compounds (60° C., 20 days; discoloration and remaining midodrine by HPLC); format: physicochemical; settings: 3 parts midodrine + 100 parts compound, sealed; for STORAGE STABILITY OF MIDODRINE: RATIO OF REMAINING MIDODRINE (% BY WEIGHT): HPLC
Procedure: Then the color of the mixture after storage was visually observed. When the color was found unchanged compared with that before the storage, the mixture was evaluated as “excellent.” When discoloration was found, the mixture was evaluated as “bad.”
The weight W5 (g) of non-decomposed midodrine remaining in the mixture after storage was quantified by HPLC, and the ratio (% by weight) of remaining midodrine to the amount W6 (g) of midodrine added was computed using the following formula (1).
Ratio(% by weight)of remaining midodrine=100×(W5/W6) (1)

[2] = Solubility of midodrine at 25° C. in monomers / compounds (saturated solution, HPLC)
Procedure: One hundred parts by weight of a monomer shown in TABLE 1 and 3 parts by weight of midodrine were sufficiently mixed to prepare a midodrine solution, and the dissolved state of midodrine in the midodrine solution was visually observed. The midodrine solution was stored at a temperature of 25° C. for 7 days, and then the dissolved state of midodrine was again visually observed. The dissolvability of midodrine was evaluated according to the following criteria.
A midodrine solution composed of 50 parts by weight of midodrine and 950 parts by weight of a compound shown in TABLE 2 and used as a solvent was prepared. Then the midodrine solution was maintained at 50° C. for 15 minutes and subjected to ultrasonic shaking in a water bath at 25° C. for 10 minutes. The resultant midodrine solution was transferred to a centrifuge tube and left to stand at 25° C. for 2 hours. Then the midodrine solution was centrifuged at a rotation speed of 3,000 rpm using a centrifuge, and the presence or absence of crystals of midodrine on the bottom of the centrifuge tube was observed. When no crystals of midodrine were deposited, the same procedure was repeated with the midodrine-to-compound weight ratio increased up to 200:800 to thereby prepare a saturated midodrine solution.
A certain amount of the supernatant of the saturated midodrine solution after centrifugation was collected, and the collected supernatant was subjected to HPLC measurement to quantify the weight W7 (g) of midodrine dissolved in the saturated midodrine solution.
(W8: weight (g) of compound used as solvent in saturated midodrine solution)

[3] = Dissolvability of midodrine in monomers (visual observation); format: physicochemical; settings: 3 parts by weight midodrine in 100 parts by weight of the monomer; observed immediately and after 7 days at 25° C.
Excerpt: High: No deposition of midodrine was found in any of the midodrine solution immediately after preparation and the midodrine solution after storage for 7 days.
Middle: Deposition of midodrine was found in the solution immediately after preparation, but no deposition of midodrine was found in the midodrine solution after storage for 7 days.
Low: Deposition of midodrine was found in the midodrine solution immediately after preparation and also in the midodrine solution after storage for 7 days.

Row | SMILES | STORAGE STABILITY OF MIDODRINE: DISCOLORATION TEST ([1]; colour observed visually) | SOLUBILITY OF MIDODRINE [2] | other results
1 | CC(O)CO (centres unmarked) [PROPYLENE GLYCOL] | EXCELLENT | 15.67 g | 
2 | CC(C)CCCC(C)CCCC(C)CCCCC(C)CCCC(C)CCCC(C)C (centres unmarked) | EXCELLENT |  | 
3 | C=C(C)C(=O)OCCCCCCCCCCCC [DODECYL METHACRYLATE] |  | 0.02 g | DISSOLVABILITY OF MIDODRINE [3]: LOW
4 | NCCO [MONOETHANOLAMINE] | BAD |  | 
5 | CCCCCCC(O)CO (centres unmarked) [OCTANEDIOL] | BAD | 1.78 g | STORAGE STABILITY OF MIDODRINE: RATIO OF REMAINING MIDODRINE (% BY WEIGHT) [1]: 48.0 % BY WEIGHT
6 | CCCCCCCCC(CO)CCCCCC (centres unmarked) [HEXYLDECANOL] | EXCELLENT |  | STORAGE STABILITY OF MIDODRINE: RATIO OF REMAINING MIDODRINE (% BY WEIGHT) [1]: 90.4 % BY WEIGHT; Value in parentheses after the liquid solubilizing aid (solubility of midodrine in the compound) [2]: HEXYLDECANOL (0.26)
7 | CCCCCCCCCCCCCC(=O)OC(C)C [ISOPROPYL MYRISTATE] | EXCELLENT |  | Value in parentheses after the liquid solubilizing aid (solubility of midodrine in the compound) [2]: ISOPROPYL MYRISTATE (0.02)
8 | C=C(C)C(=O)OCC(CC)CCCC (centres unmarked) [2-ETHYLHEXYL METHACRYLATE] |  |  | DISSOLVABILITY OF MIDODRINE [3]: LOW
9 | CCCCCCCC/C=C\CCCCCCCCO [OLEYL ALCOHOL] | BAD | 0.40 g | 
10 | OCCCCO [BUTYLENE GLYCOL] |  | 7.72 g | STORAGE STABILITY OF MIDODRINE: DIS[…] ([1]; colour observed visually): EXCELLENT
11 | CCCCCCCCCCC(CO)CCCCCCCC (centres unmarked) [OCTYLDODECANOL] | EXCELLENT |  | STORAGE STABILITY OF MIDODRINE: RATIO OF REMAINING MIDODRINE (% BY WEIGHT) [1]: 100.0 % BY WEIGHT
12 | CCOC(=O)CC(O)(CC(=O)OCC)C(=O)OCC [TRIETHYL CITRATE] | EXCELLENT |  | 
13 | CC(C)CCCCCCCCCCCCCCCO [ISOSTEARYL ALCOHOL] | EXCELLENT |  | 
14 | C=C(C)C(=O)OCCCC [BUTYL METHACRYLATE] |  |  | SOLUBILITY OF MIDODRINE ([2]; in the monomer as solvent, 25° C., grams of midodrine per 100 g of solvent): 0.10 g; DISSOLVABILITY OF MIDODRINE [3]: LOW
15 | C=CC(=O)O [ACRYLIC ACID] |  |  | DISSOLVABILITY OF MIDODRINE [3]: HIGH
16 | CCCCCCCCCCCCCCCC(=O)OC(C)C [ISOPROPYL PALMITATE] | EXCELLENT |  | Value in parentheses after the liquid solubilizing aid (solubility of midodrine in the compound) [2]: ISOPROPYL PALMITATE (0.02)
17 | CCCCCCCCCCCCO [LAURYL ALCOHOL] | BAD |  | 
18 | C=CC(=O)OCC [ETHYL ACRYLATE] |  | 0.25 g | DISSOLVABILITY OF MIDODRINE [3]: LOW
19 | CC(C)CCCCCCCCCCCCCCC(=O)O [ISOSTEARIC ACID] | BAD |  | 
20 | CC(=O)OCC(COC(C)=O)OC(C)=O [TRIACETIN] | EXCELLENT | 0.70 g | 
21 | C=CN1CCCC1=O [1-VINYL-2-PYRROLIDONE] |  | >3.0 g | DISSOLVABILITY OF MIDODRINE [3]: HIGH
22 | CCCCCCCCCCCC(=O)OCCCCCC [HEXYL LAURATE] | EXCELLENT | 0.02 g | 
